These results are taken from patent publication US20060235222A1, “Indole-derivative modulators of steroid hormone nuclear receptors” (ELI LILLY AND COMPANY, priority 2003, published 2006).

Structures are written as SMILES. Some results are limits rather than exact numbers.

A word on the Ki: it is the dissociation constant of the complex between target and ligand, obtained from inhibition or displacement. A word on the melting point: it is the temperature of the solid-liquid transition.

The target of one data set is T1, human MR (Homo sapiens, UniProt P08235).
T1 construct: The full length human MR gene is cloned from a human kidney or human brain cDNA library; inferred from own knowledge of the pAcHLT vector (N); made in house; host or cells: Sf9 insect cells (baculovirus)
T1 sequence (P08235 1-984): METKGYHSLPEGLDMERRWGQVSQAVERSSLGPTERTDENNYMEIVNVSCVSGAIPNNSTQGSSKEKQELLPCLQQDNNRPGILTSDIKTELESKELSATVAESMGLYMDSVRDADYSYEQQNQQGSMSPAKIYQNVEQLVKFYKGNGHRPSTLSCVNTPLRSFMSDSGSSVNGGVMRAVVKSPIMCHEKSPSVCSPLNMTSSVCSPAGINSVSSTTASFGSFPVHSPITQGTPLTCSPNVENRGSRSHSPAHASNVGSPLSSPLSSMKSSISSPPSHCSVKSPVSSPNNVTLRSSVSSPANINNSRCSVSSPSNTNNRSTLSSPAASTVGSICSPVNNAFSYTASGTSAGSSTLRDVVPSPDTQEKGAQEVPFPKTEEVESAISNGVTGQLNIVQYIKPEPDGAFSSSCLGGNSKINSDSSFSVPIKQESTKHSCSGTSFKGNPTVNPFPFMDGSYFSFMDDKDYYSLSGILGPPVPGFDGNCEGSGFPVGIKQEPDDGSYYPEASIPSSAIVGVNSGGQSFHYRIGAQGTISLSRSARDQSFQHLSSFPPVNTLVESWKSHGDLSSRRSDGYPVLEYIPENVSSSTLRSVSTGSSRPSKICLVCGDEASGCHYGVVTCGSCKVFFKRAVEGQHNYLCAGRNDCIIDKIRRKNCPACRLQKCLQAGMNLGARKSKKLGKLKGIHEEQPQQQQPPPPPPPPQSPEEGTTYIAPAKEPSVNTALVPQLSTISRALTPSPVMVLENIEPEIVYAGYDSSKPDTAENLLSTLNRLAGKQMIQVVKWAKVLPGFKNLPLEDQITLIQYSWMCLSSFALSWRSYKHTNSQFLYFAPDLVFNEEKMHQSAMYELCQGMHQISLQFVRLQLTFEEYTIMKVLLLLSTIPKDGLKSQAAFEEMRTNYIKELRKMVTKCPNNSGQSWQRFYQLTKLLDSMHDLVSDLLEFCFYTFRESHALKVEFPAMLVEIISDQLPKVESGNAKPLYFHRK
Kind of data set: Mineralocorticoid Receptor Binding Assay (Method 1), [3H]-aldosterone competition. The following applies: 0.5 nM [3H]-aldosterone, human MR expressed in Sf9 cells. Put shortly:
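Full-length human MR expressed in Sf9 cells via baculovirus; lysate supernatant (about 20-25 μg protein) incubated with 0.5 nM [3H]-aldosterone and test compound for about 16 h at 4° C. Buffer was Tris/molybdate/phosphate/pyrophosphate with 10% glycerol, pH 7.5; filter-bound complex counted by scintillation.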

The target in data set [1] is T2, human GR (glucocorticoid receptor) (Homo sapiens, UniProt P04150).
T2 construct: expressed in transfected cells; host or cells: 293 cells
T2 sequence (P04150 1-777): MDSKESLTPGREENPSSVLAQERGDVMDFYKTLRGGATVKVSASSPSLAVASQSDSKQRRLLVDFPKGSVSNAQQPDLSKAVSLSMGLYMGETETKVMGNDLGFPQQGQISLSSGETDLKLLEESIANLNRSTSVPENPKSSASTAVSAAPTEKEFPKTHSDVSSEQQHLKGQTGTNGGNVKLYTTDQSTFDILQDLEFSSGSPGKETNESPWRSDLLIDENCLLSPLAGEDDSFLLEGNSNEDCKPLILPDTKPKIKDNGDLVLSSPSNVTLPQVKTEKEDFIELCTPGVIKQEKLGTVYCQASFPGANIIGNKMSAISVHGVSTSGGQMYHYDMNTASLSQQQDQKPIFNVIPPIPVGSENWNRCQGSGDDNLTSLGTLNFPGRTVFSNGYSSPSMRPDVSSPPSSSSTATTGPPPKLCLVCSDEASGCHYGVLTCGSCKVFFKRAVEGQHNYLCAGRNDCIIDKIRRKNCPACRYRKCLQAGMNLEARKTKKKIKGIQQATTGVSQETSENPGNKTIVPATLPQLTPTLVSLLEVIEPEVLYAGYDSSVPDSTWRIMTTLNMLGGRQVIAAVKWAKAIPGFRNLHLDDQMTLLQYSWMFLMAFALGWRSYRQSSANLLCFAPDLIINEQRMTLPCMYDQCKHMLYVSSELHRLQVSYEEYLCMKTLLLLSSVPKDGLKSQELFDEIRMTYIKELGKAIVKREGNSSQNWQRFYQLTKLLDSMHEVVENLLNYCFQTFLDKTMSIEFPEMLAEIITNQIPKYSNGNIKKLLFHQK
Kind of data set: Alternative Binding Assay Protocol (Method 2), 293-GR lysate, 3H-dexamethasone competition. The following applies: 0.3 nM 3H-dexamethasone. The protocol: Alternative Binding Assay Protocol for MR, GR, AR, and PR (Method 2):
Cell lysates from 293 cells overexpressing human GR (glucocorticoid receptor), AR (androgen receptor), MR (mineralocorticoid receptor) or PR (progesterone-receptor) are used for competition binding assays to determine Ki values for test compounds. […] Competing compounds are added at various concentraions in half-log increments. Non-specific binding is determined in the presence of 500 nM dexamethasone for GR binding, 500 nM aldosterone for MR binding, or 500 nM methyltrienolone for AR and PR binding. The binding reaction (140 μl) is incubated for overnight at 4° C., then 70 μl of cold charcoal-dextran buffer (containing per 50 ml of assay buffer, 0.75 g of charcoal and 0.25 g of dextran) is added to each reaction. Plates are mixed 8 minutes on an orbital shaker at 4° C. Plates are then centrifuged at 3,000 rpm at 4° C. for 10 minutes. An aliquot of 120 μl of the mix is transferred to another 96-well plate and 175 μl of Wallac Optiphase “Hisafe 3” scintillation fluid is added to each well. Plates are sealed and shaken vigorously on an orbital shaker. After an incubation of 2 hrs, plates are read in a Wallac Microbeta counter. […] The Kd for ^3H-dexamethasone for GR binding, ^3H-methyltrienolone for AR binding, ^3H-aldosterone for MR binding, or ^3H-methyltrienolone for PR binding, is determined by saturation binding. The IC50 values for compounds are converted to Ki using Cheng-Prusoff equation and the Kd determined by saturation binding assay.

With `CCC(CC)(c1ccc2scnc2c1)c1c[nH]c2c(NS(C)(=O)=O)cccc12` [Example 142, N-[3-(1-Benzothiazol-5-yl-1-ethyl-propyl)-1H-indol-7-yl]-methanesulfonamide], the melting point was 105 to 115 °C (dec.). For the same compound, the Ki at human MR is below 500 nM.
Take `CCC(CC)(c1ccc2sc(C)nc2c1)c1c[nH]c2c(NS(C)(=O)=O)cccc12` [Example 140, N-{3-[1-Ethyl-1-(2-methyl-benzothiazol-5-yl)-propyl]-1H-indol-7-yl}-methanesulfonamide]: the melting point lay within 112 to 117 °C.
The same measure, in the same setting: then `CCC(CC)(c1ccc2sc(NC(C)=O)nc2c1)c1c[nH]c2c(NS(C)(=O)=O)cccc12` [Example 150, N-{5-[1-Ethyl-1-(7-methanesulfonylamino-1H-indol-3-yl)-propyl]-benzothiazol-2-yl}-acetamide], with 266 to 268 °C.
Compound `CCC(CC)(c1ccc2onc(N)c2c1)c1c[nH]c2c(NS(C)(=O)=O)cccc12` [Example 152, N-{3-[1-(3-Amino-benzo[d]isoxazol-5-yl)-1-ethyl-propyl]-1H-indol-7-yl}-methanesulfonamide] showed a melting point of 155 to 161 °C. The compound also returned an inhibition constant Ki on human MR below 500 nM.
In the case of `CCC(CC)(c1ccc2c(c1)nc(C)n2C)c1c[nH]c2c(NS(C)(=O)=O)cccc12` [Example 162, N-{3-[1-(1,2-Dimethyl-1H-benzoimidazol-5-yl)-1-ethyl-propyl]-1H-indol-7-yl}-methanesulfonamide], the melting point lay within 275 to 278 °C.
Regarding `CCC(CC)(c1ccc2nc(N)sc2c1)c1c[nH]c2c(NS(C)(=O)=O)cccc12` [Example 144, N-{3-[1-(2-Amino-benzothiazol-6-yl)-1-ethyl-propyl]-1H-indol-7-yl}-methanesulfonamide], the melting point was 155 to 160 °C. The inhibitory constant (Ki) at human MR is below 500 nM.
In the case of `CCC(CC)(c1ccc2nc(C)oc2c1)c1c[nH]c2c(NS(C)(=O)=O)cccc12` [Example 193], the Ki (on human MR; in data set [1]) was below 500 nM throughout.
In the case of `CCC(CC)(c1ccc2c(ccn2C(C)=O)c1)c1c[nH]c2c(NS(C)(=O)=O)cccc12` [Example 156, N-{3-[1-(1-Acetyl-1H-indol-5-yl)-1-ethyl-propyl]-1H-indol-7-yl}-methanesulfonamide], the melting point was in the range of 125 to 130 °C.
On to `C[C@@](c1ccccc1F)(c1c[nH]c2c(NS(C)(=O)=O)cccc12)C1CC1` [Example 180], for which the Ki (at human MR; in data set [1]) was below 500 nM in each case.
Turning to `CCC(CC)(c1ccc2c(ccn2C(C)=O)c1)c1c[nH]c2c(NS(C)(=O)=O)cccc12` [Example 195], the Ki at human MR is below 500 nM; in data set [1], below 1000 nM.
For `C[C@@](c1ccc(Cl)cc1)(c1c[nH]c2c(NS(C)(=O)=O)cccc12)C1CC1` [Example 174], in that order: below 500 nM and below 500 nM.
Regarding `CCC(CC)(c1cccc2oc(C)cc12)c1c[nH]c2c(NS(C)(=O)=O)cccc12` [Example 160, N-{3-[1-Ethyl-1-(2-methyl-benzofuran-4-yl)-propyl]-1H-indol-7-yl}-methanesulfonamide], the melting point fell in the range of 85 to 90 °C.
For `CC(C)CC(C)(c1ccccc1)c1c[nH]c2c(NS(C)(=O)=O)cccc12` (centres unmarked) [Example 187], the inhibitory constant (Ki) (at human MR; in data set [1]) was below 500 nM throughout.
With `CCC(CC)(c1ccc2oc(C)nc2c1)c1c[nH]c2c(NS(C)(=O)=O)cccc12` [Example 191], the results for the inhibitory constant (Ki) (on human MR; in data set [1]) were below 500 nM and below 1000 nM, respectively.
In the case of `C[C@](c1ccccc1F)(c1c[nH]c2c(NS(C)(=O)=O)cccc12)C1CC1` [Example 172], the Ki (on human MR; in data set [1]) was below 500 nM each time.
With `C[C@](c1ccc(Cl)cc1)(c1c[nH]c2c(NS(C)(=O)=O)cccc12)C1CC1` [Example 164], the Ki (at human MR; in data set [1]) was below 500 nM in each case.
Consider `CCCCC(c1ccc(F)cc1)(c1c[nH]c2c(NS(C)(=O)=O)cccc12)C1CC1` (centres unmarked) [Example 185], for which the inhibitory constant (Ki) (on human MR; in data set [1]) was below 500 nM throughout.
On to `CC(c1ccc2c(c1)OCO2)(c1c[nH]c2c(NS(C)(=O)=O)cccc12)C1CC1` (centres unmarked) [Example 175], for which the Ki (on human MR; in data set [1]) was below 500 nM each time.
`CCC(CC)(c1ccc2oc(C)nc2c1)c1c[nH]c2c(NS(C)(=O)=O)cccc12` [Example 145, N-{3-[1-Ethyl-1-(2-methyl-benzooxazol-5-yl)-propyl]-1H-indol-7-yl}-methanesulfonamide]: the melting point fell in the range of 152 to 160 °C.
Turning to `C[C@](c1ccc(F)cc1)(c1c[nH]c2c(NS(C)(=O)=O)cccc12)C1CC1` [Example 173], the Ki (at human MR; in data set [1]) was below 500 nM each time.
With `CCCC(c1ccc(F)cc1)(c1c[nH]c2c(NS(C)(=O)=O)cccc12)C1CC1` (centres unmarked) [Example 179], the Ki (at human MR; in data set [1]) was below 500 nM throughout.
In the case of `CCC(CC)(c1ccc2oc(C)cc2c1)c1c[nH]c2c(NS(C)(=O)=O)cccc12` [Example 181], the inhibition constant Ki (at human MR; in data set [1]) was below 500 nM each time.
`CCC(CC)(c1ccc2oc(C)cc2c1)c1c[nH]c2c(NS(C)(=O)=O)cccc12` [Example 155, N-{3-[1-Ethyl-1-(2-methyl-benzofuran-5-yl)-propyl]-1H-indol-7-yl}-methanesulfonamide] yielded a melting point of 100 to 105 °C.
As for `CC(c1ccccc1F)(c1c[nH]c2c(NS(C)(=O)=O)cccc12)C1CC1` (centres unmarked) [Example 168], the inhibition constant Ki (at human MR; in data set [1]) was below 500 nM each time.
Regarding `CCC(CC)(c1ccc2nc(C(F)(F)F)[nH]c2c1)c1c[nH]c2c(NS(C)(=O)=O)cccc12` [Example 151, N-{3-[1-Ethyl-1-(2-trifluoromethyl-3H-benzoimidazol-5-yl)-propyl]-1H-indol-7-yl}-methanesulfonamide], the melting point lay within 225 to 235 °C.
Regarding `CCC(CC)(c1ccc2sc(C)nc2c1)c1c[nH]c2c(NS(C)(=O)=O)cccc12` [Example 190], the inhibition constant (Ki) (on human MR; in data set [1]) was below 500 nM each time.
